Results as given in patent publication US20150307461A1, “ANTIVIRAL COMPOUNDS” (priority 2012, published 2015).

Assays:
Test in all cases: microbe, parasite or virus in culture
[1] = system: Pseudotyped HCV GT1b particles (HCVpp); format: cell-based, HCV GT1b Con1 strain; details: Hepatitis C virus, 72 h, read-out: HCVpp GT-1b (EC50, μM)
[2] = system: Pseudotyped HCV GT1a particles (HCVpp); format: cell-based, HCV GT1a H77 strain; details: Hepatitis C virus, 72 h, read-out: HCVpp GT-1a (EC50, μM)
[3] = system: pseudotyped VSV G particles (VSVpp); format: cell-based; details: Vesicular stomatitis virus, 72 h, read-out: VSVpp (EC50, μM)

| SMILES | EC50 [1] | EC50 [2] | EC50 [3] |
| --- | --- | --- | --- |
| CN(C)S(=O)(=O)c1ccc(Nc2n[nH]c(N)n2)cc1 [Compound I-26, 4-(5-Amino-1H-[1,2,4]triazol-3-ylamino)-N,N-dimethyl-benzenesulfonamide] | 100 µM | 100 µM | 100 µM |
| Nc1nc(Nc2cc(Cl)c(Cl)c(Cl)c2)n[nH]1 [Compound I-11, N*3*-(3,4,5-Trichloro-phenyl)-1H-[1,2,4]triazole-3,5-diamine] | 4.68 µM | 0.166 µM | 100 µM |
| CC(C)c1cccc(Nc2n[nH]c(N)n2)c1 [Compound I-56, N^3-(3-Isopropyl-phenyl)-1H-[1,2,4]triazole-3,5-diamine] | 19.6 µM | 8.36 µM | 100 µM |
| Nc1nc(Nc2cc(F)c(Br)c(S(F)(F)(F)(F)F)c2)n[nH]1 [Compound I-83, N*3*-(4-Bromo-3-fluoro-5-pentafluorosulfur-phenyl)-1H-[1,2,4]triazole-3,5-diamine] | 0.17 µM | 0.076 µM | 32.5 µM |
| Nc1nc(Nc2ccc([N+](=O)[O-])c(Cl)c2)n[nH]1 [Compound I-8, N*3*-(3-Chloro-4-nitro-phenyl)-1H-[1,2,4]triazole-3,5-diamine] | 1.15 µM | 0.141 µM | 98.1 µM |
